Key:
Type in all cases: cell-based, human
[1] = tested on: three-dimensional cellular tissue (NHDF, HUVEC, HCT15/β2m cells); test: Bright-field observation of three-dimensional cellular tissue formation (Experimental Example 1); settings: day 7 of culture; ascorbic acid 0, 0.05 or 0.1 mM; TGF-β 0, 0.1, 1, 5 or 10 ng/mL
Method: 1.0×10^6 cells of human neonatal dermal fibroblasts NHDF (product number “CC-2509”, Lonza) and 1.5×10^4 cells of human umbilical vein endothelial cells HUVEC (product number “C2517A”, Lonza) were suspended in a 50 mM tris-HCl buffer solution (pH 7.4) containing 0.1 mg/mL heparin (product number “H3149-100KU”, Sigma) and 0.1 mg/mL collagen (product number “ASC-1-100-100”, Sigma).
Then, the cell suspension was centrifuged at room temperature at 1,000×g (gravitational acceleration) for 2 minutes, and, after removing the supernatant, resuspended in 300 μL of general-purpose medium. Then, the obtained cell suspension was seeded inside a 24-well cell culture insert (product number “3470”, Corning Incorporated) coated with 0.1 mg/mL fibronectin in advance, with 1 mL of general-purpose medium added to the outside.
Then, the cell culture insert was centrifuged at room temperature at 400×g for 2 minutes, and then allowed to stand in a CO2 incubator (37° C., 5% CO2) for 2 hours. Then, 1 mL of general-purpose medium was added to the outside the cell culture insert, and the cells were cultured in a CO2 incubator (37° C., 5% CO2) for 24 hours (the time at which this culture was started is referred to as the culture start time).
The medium outside the cell culture insert was removed, and 1 mL of general-purpose medium was added. […]

[2] = tested on: three-dimensional cellular tissue (NHDF, HUVEC, HCT15/β2m cells); test: Formation of collagen, PSR staining, timing of ascorbic acid addition (Experimental Example 2); settings: day 7 of culture
Method: Preparation of stromal cells, seeding of cancer cells and lamination of stromal cells were performed in the same manner as in Experimental Example 1 except that 2.0×10^6 cells of human neonatal dermal fibroblasts NHDF were seeded, as NHDF, in a square dish (product number “166508”, Nunc) containing 90 mL of general-purpose medium or general-purpose medium containing 0.1 mM ascorbic acid, and cultured in a CO2 incubator (37° C., 5% CO2) for 24 hours.
Then, the medium inside and outside the cell culture insert was removed, and 2.3 mL of general-purpose medium or general-purpose medium containing 0.1 mM ascorbic acid was added, and the cells were cultured in a CO2 incubator (37° C., 5% CO2) for 3 days.
Subsequently, the medium inside and outside the culture insert was removed, and 2.3 mL of general-purpose medium or general-purpose medium containing 0.1 mM ascorbic acid was added, and the cells were cultured in a CO2 incubator (37° C., 5% CO2) for 3 days.
On day 7 of the culture, the three-dimensional cellular tissue was washed twice with PBS, and 300 μL of 10% formalin buffer solution (product number “062-01661”, FUJIFILM Wako Pure Chemical Corporation) was added to the cell culture insert, which was then allowed to stand for 15 minutes or more and washed three times with PBS to fix the three-dimensional cellular tissue. […]

[3] = tested on: three-dimensional cellular tissue (NHDF, HUVEC, HCT15/β2m cells); test: Formation of collagen, PSR staining (Experimental Example 1); settings: ascorbic acid 0.1 mM, alone or with TGF-β 1 ng/mL
Method: The medium inside and outside the above cell culture insert was removed, and 2 mL of general-purpose medium was added, using magnesium ascorbate phosphate (product number “013-12061”, FUJIFILM Wako Pure Chemical Corporation) and TGF-β (product number “209-16544”, FUJIFILM Wako Pure Chemical Corporation), with the ascorbic acid concentration being 0 mM, […], and the cells were cultured in a CO2 incubator (37° C., 5% CO2) for 3 days. Then, the medium inside and outside the culture insert was removed, and 2.3 mL of general-purpose medium was added with the ascorbic acid concentration being 0 mM, […], and the cells were cultured in a CO2 incubator (37° C., 5% CO2) for 3 days. On day 4 and day 7 of the culture, the obtained three-dimensional cellular tissue was washed twice with PBS, and […] of 10% formalin buffer solution (product number “062-01661”, FUJIFILM Wako Pure Chemical Corporation) was added to the cell culture insert, which was then allowed to stand for 15 minutes or more and washed three times with PBS to fix the three-dimensional cellular tissue. Then, the three-dimensional cellular tissue was removed from the cell culture insert, embedded in paraffin, and cut along a line passing through the center of gravity in a direction perpendicular to the top of the three-dimensional cellular tissue (top of the cell culture insert) to prepare a […] thin slice. […]

Compound | formation of three-dimensional cellular tissue (microscopic observation) [1] | formation of collagen (PSR staining) ([2]; 0.1 mM ascorbic acid added after formation of the three-dimensional cellular tissue) | formation of collagen (PSR staining) ([2]; 0.1 mM ascorbic acid added to NHDF in advance (24 hours before tissue formation)) | formation of collagen (PSR staining, PSR ratio) [3]
O=C1O[C@H]([C@@H](O)CO)C(O)=C1O [ascorbic acid] | a three-dimensional cellular tissue was formed | collagen was found to be formed | no change in formation of collagen | fiber-like collagen was formed
TGF-β | the cellular tissue shrunk and became detached from the cell culture insert, and no three-dimensional cellular tissue was formed | – | – | –
